# ChEMBL document CHEMBL4373660, “The synthesis and biological evaluation of novel gardenamide A derivatives as multifunctional neuroprotective agents” (Medchemcomm, 2019)
# System: Cortical neurone
# Assay: (§1) Neuroprotective activity against OGD-induced neurotoxicity in Sprague-Dawley rat cortical neuron assessed as cell survival rate at 0.1 uM pretreated for 24 hrs followed by incubation in oxygen and glucose deprivation medium for 2 hrs followed by exposure to reoxygenation by re-incubating in normoxia condition for 24 hrs by MTT assay (reference value: 58.5 to 61.2 %)
# Type: functional
# Conditions: not given
row,SMILES,Activity
1,COC(=O)C1=CN(C(C)C)C(=O)[C@@H]2C(CN3CCN(Cc4ccc(C)cc4)CC3)=CC[C@H]12.Cl.Cl,59%
2,COC(=O)C1=CN(C(C)C)C(=O)[C@@H]2C(CN3CCN(Cc4ccccc4)CC3)=CC[C@H]12.Cl.Cl,64.4%
3,COC(=O)C1=CN(C(C)C)C(=O)[C@@H]2C(CN3CCN(Cc4ccc(C(F)(F)F)cc4)CC3)=CC[C@H]12.Cl.Cl,59.1%
4,COC(=O)C1=CN(C)C(=O)[C@@H]2C(CN3CCN(Cc4ccc([N+](=O)[O-])cc4)CC3)=CC[C@H]12.Cl.Cl,60%
5,COc1cc2c(cc1OC)C(=O)C(CC1CCN(Cc3ccccc3)CC1)C2 (centres undefined) [DONEPEZIL],65.5%
6,COC(=O)C1=CN(C(C)C)C(=O)[C@@H]2C(CN3CCN(Cc4ccc([N+](=O)[O-])cc4)CC3)=CC[C@H]12.Cl.Cl,67.1%
7,COC(=O)C1=CN(C(C)C)C(=O)[C@@H]2C(CN3CCN(Cc4ccc(F)cc4)CC3)=CC[C@H]12.Cl.Cl,65.4%
8,COC(=O)C1=CN(C)C(=O)[C@@H]2C(CN3CCN(Cc4ccc(F)cc4)CC3)=CC[C@H]12.Cl.Cl,63.8%
9,COC(=O)C1=CN(C)C(=O)[C@@H]2C(CN3CCN(Cc4ccc(C)cc4)CC3)=CC[C@H]12.Cl.Cl,59%
10,COC(=O)C1=CN(C)C(=O)[C@@H]2C(CN3CCN(Cc4cccc(OC)c4)CC3)=CC[C@H]12.Cl.Cl,59.5%

# System: Cortical neurone
# Assay: as §1, with “1” for “0.1”
# Type: functional
# Conditions: not given
row,SMILES,Activity
1,COC(=O)C1=CN(C(C)C)C(=O)[C@@H]2C(CN3CCN(Cc4ccc(C)cc4)CC3)=CC[C@H]12.Cl.Cl,73.1%
2,COC(=O)C1=CN(C(C)C)C(=O)[C@@H]2C(CN3CCN(Cc4ccccc4)CC3)=CC[C@H]12.Cl.Cl,71.8%
3,COC(=O)C1=CN(C(C)C)C(=O)[C@@H]2C(CN3CCN(Cc4ccc(C(F)(F)F)cc4)CC3)=CC[C@H]12.Cl.Cl,71.6%
4,COC(=O)C1=CN(C)C(=O)[C@@H]2C(CN3CCN(Cc4ccc([N+](=O)[O-])cc4)CC3)=CC[C@H]12.Cl.Cl,66.7%
5,COc1cc2c(cc1OC)C(=O)C(CC1CCN(Cc3ccccc3)CC1)C2 (centres undefined) [DONEPEZIL],72.3%
6,COC(=O)C1=CN(C(C)C)C(=O)[C@@H]2C(CN3CCN(Cc4ccc([N+](=O)[O-])cc4)CC3)=CC[C@H]12.Cl.Cl,74.3%
7,COC(=O)C1=CN(C(C)C)C(=O)[C@@H]2C(CN3CCN(Cc4ccc(F)cc4)CC3)=CC[C@H]12.Cl.Cl,74.4%
8,COC(=O)C1=CN(C)C(=O)[C@@H]2C(CN3CCN(Cc4ccc(F)cc4)CC3)=CC[C@H]12.Cl.Cl,71.3%
9,COC(=O)C1=CN(C)C(=O)[C@@H]2C(CN3CCN(Cc4ccc(C)cc4)CC3)=CC[C@H]12.Cl.Cl,66.9%
10,COC(=O)C1=CN(C)C(=O)[C@@H]2C(CN3CCN(Cc4cccc(OC)c4)CC3)=CC[C@H]12.Cl.Cl,63.8%

# System: Cortical neurone
# Assay: as §1, with “10” for “0.1”
# Type: functional
# Conditions: not given
row,SMILES,Activity
1,COC(=O)C1=CN(C(C)C)C(=O)[C@@H]2C(CN3CCN(Cc4ccc(C)cc4)CC3)=CC[C@H]12.Cl.Cl,85.7%
2,COC(=O)C1=CN(C(C)C)C(=O)[C@@H]2C(CN3CCN(Cc4ccccc4)CC3)=CC[C@H]12.Cl.Cl,84.5%
3,COC(=O)C1=CN(C(C)C)C(=O)[C@@H]2C(CN3CCN(Cc4ccc(C(F)(F)F)cc4)CC3)=CC[C@H]12.Cl.Cl,85.7%
4,COC(=O)C1=CN(C)C(=O)[C@@H]2C(CN3CCN(Cc4ccc([N+](=O)[O-])cc4)CC3)=CC[C@H]12.Cl.Cl,74.3%
5,COc1cc2c(cc1OC)C(=O)C(CC1CCN(Cc3ccccc3)CC1)C2 (centres undefined) [DONEPEZIL],85.9%
6,COC(=O)C1=CN(C(C)C)C(=O)[C@@H]2C(CN3CCN(Cc4ccc([N+](=O)[O-])cc4)CC3)=CC[C@H]12.Cl.Cl,87.6%
7,COC(=O)C1=CN(C(C)C)C(=O)[C@@H]2C(CN3CCN(Cc4ccc(F)cc4)CC3)=CC[C@H]12.Cl.Cl,86.5%
8,COC(=O)C1=CN(C)C(=O)[C@@H]2C(CN3CCN(Cc4ccc(F)cc4)CC3)=CC[C@H]12.Cl.Cl,85.7%
9,COC(=O)C1=CN(C)C(=O)[C@@H]2C(CN3CCN(Cc4ccc(C)cc4)CC3)=CC[C@H]12.Cl.Cl,72.6%
10,COC(=O)C1=CN(C)C(=O)[C@@H]2C(CN3CCN(Cc4cccc(OC)c4)CC3)=CC[C@H]12.Cl.Cl,72.5%

# System: not listed separately
# Assay: Neuroprotective activity against H2O2-induced neurotoxicity in Sprague-Dawley rat hippocampal neuron assessed as cell survival rate at 0.1 uM incubated for 24 hrs in presence of 150 uM H2O2 by MTT assay (reference value: 41.6 to 43.2 %)
# Type: functional, Hippocampal neurone
# Conditions: not given
row,SMILES,Activity
1,COC(=O)C1=CN(C(C)C)C(=O)[C@@H]2C(CN3CCN(Cc4ccccc4)CC3)=CC[C@H]12.Cl.Cl,60.3%
2,COC(=O)C1=CN(C(C)C)C(=O)[C@@H]2C(CN3CCN(Cc4ccc([N+](=O)[O-])cc4)CC3)=CC[C@H]12.Cl.Cl,57.6%
3,COC(=O)C1=CN(C(C)C)C(=O)[C@@H]2C(CN3CCN(Cc4ccc(F)cc4)CC3)=CC[C@H]12.Cl.Cl,60.4%
4,COC(=O)C1=CN(C)C(=O)[C@@H]2C(CN3CCN(Cc4ccc(F)cc4)CC3)=CC[C@H]12.Cl.Cl,62.5%
5,CC(=O)N[C@@H](CS)C(=O)O [ACETYLCYSTEINE],62.6%

# System: not listed separately
# Assay: Neuroprotective activity against H2O2-induced neurotoxicity in Sprague-Dawley rat hippocampal neuron assessed as cell survival rate at 1 uM incubated for 24 hrs in presence of 150 uM H2O2 by MTT assay (reference value: 41.6 to 43.2 %)
# Type: functional, Hippocampal neurone
# Conditions: not given
row,SMILES,Activity
1,COC(=O)C1=CN(C(C)C)C(=O)[C@@H]2C(CN3CCN(Cc4ccccc4)CC3)=CC[C@H]12.Cl.Cl,71%
2,COC(=O)C1=CN(C(C)C)C(=O)[C@@H]2C(CN3CCN(Cc4ccc([N+](=O)[O-])cc4)CC3)=CC[C@H]12.Cl.Cl,73.8%
3,COC(=O)C1=CN(C(C)C)C(=O)[C@@H]2C(CN3CCN(Cc4ccc(F)cc4)CC3)=CC[C@H]12.Cl.Cl,67.3%
4,COC(=O)C1=CN(C)C(=O)[C@@H]2C(CN3CCN(Cc4ccc(F)cc4)CC3)=CC[C@H]12.Cl.Cl,70.3%
5,CC(=O)N[C@@H](CS)C(=O)O [ACETYLCYSTEINE],69.5%

# System: not listed separately
# Assay: Neuroprotective activity against H2O2-induced neurotoxicity in Sprague-Dawley rat hippocampal neuron assessed as cell survival rate at 10 uM incubated for 24 hrs in presence of 150 uM H2O2 by MTT assay (reference value: 41.6 to 43.2 %)
# Type: functional, Hippocampal neurone
# Conditions: not given
row,SMILES,Activity
1,COC(=O)C1=CN(C(C)C)C(=O)[C@@H]2C(CN3CCN(Cc4ccccc4)CC3)=CC[C@H]12.Cl.Cl,76.2%
2,COC(=O)C1=CN(C(C)C)C(=O)[C@@H]2C(CN3CCN(Cc4ccc([N+](=O)[O-])cc4)CC3)=CC[C@H]12.Cl.Cl,82.1%
3,COC(=O)C1=CN(C(C)C)C(=O)[C@@H]2C(CN3CCN(Cc4ccc(F)cc4)CC3)=CC[C@H]12.Cl.Cl,72.4%
4,COC(=O)C1=CN(C)C(=O)[C@@H]2C(CN3CCN(Cc4ccc(F)cc4)CC3)=CC[C@H]12.Cl.Cl,78.5%
5,CC(=O)N[C@@H](CS)C(=O)O [ACETYLCYSTEINE],79.1%

# System: not listed separately
# Assay: Cytotoxicity against Sprague-Dawley rat cortical neuron assessed as cell survival at 3.7 uM incubated for 48 hrs by CellTiter Glo-based luminescence assay relative to control
# Set-up: species or system Cortical neurone
# Conditions: rat cortical neurons, read-out: Activity
row,SMILES,"viability at 48 h, 3.7 µM"
1,COC(=O)C1=CN(C(C)C)C(=O)[C@@H]2C(CN3CCN(Cc4ccccc4)CC3)=CC[C@H]12.Cl.Cl,90.7%
2,COC(=O)C1=CN(C(C)C)C(=O)[C@@H]2C(CN3CCN(Cc4ccc([N+](=O)[O-])cc4)CC3)=CC[C@H]12.Cl.Cl,97.2%
3,COC(=O)C1=CN(C(C)C)C(=O)[C@@H]2C(CN3CCN(Cc4ccc(F)cc4)CC3)=CC[C@H]12.Cl.Cl,94.2%
4,COC(=O)C1=CN(C)C(=O)[C@@H]2C(CN3CCN(Cc4ccc(F)cc4)CC3)=CC[C@H]12.Cl.Cl,98.4%

# System: not listed separately
# Assay: Cytotoxicity against Sprague-Dawley rat cortical neuron assessed as cell survival at 33.3 uM incubated for 48 hrs by CellTiter Glo-based luminescence assay relative to control
# Set-up: species or system Cortical neurone
# Conditions: rat cortical neurons, read-out: Activity
row,SMILES,"viability at 48 h, 33.3 µM"
1,COC(=O)C1=CN(C(C)C)C(=O)[C@@H]2C(CN3CCN(Cc4ccccc4)CC3)=CC[C@H]12.Cl.Cl,91.7%
2,COC(=O)C1=CN(C(C)C)C(=O)[C@@H]2C(CN3CCN(Cc4ccc([N+](=O)[O-])cc4)CC3)=CC[C@H]12.Cl.Cl,88.7%
3,COC(=O)C1=CN(C(C)C)C(=O)[C@@H]2C(CN3CCN(Cc4ccc(F)cc4)CC3)=CC[C@H]12.Cl.Cl,88.4%
4,COC(=O)C1=CN(C)C(=O)[C@@H]2C(CN3CCN(Cc4ccc(F)cc4)CC3)=CC[C@H]12.Cl.Cl,85.1%

# System: not listed separately
# Assay: Cytotoxicity against Sprague-Dawley rat cortical neuron assessed as cell survival at 11.1 uM incubated for 48 hrs by CellTiter Glo-based luminescence assay relative to control
# Set-up: species or system Cortical neurone
# Conditions: rat cortical neurons, read-out: Activity
row,SMILES,"viability at 48 h, 11.1 µM"
1,COC(=O)C1=CN(C(C)C)C(=O)[C@@H]2C(CN3CCN(Cc4ccccc4)CC3)=CC[C@H]12.Cl.Cl,96.3%
2,COC(=O)C1=CN(C(C)C)C(=O)[C@@H]2C(CN3CCN(Cc4ccc([N+](=O)[O-])cc4)CC3)=CC[C@H]12.Cl.Cl,99.7%
3,COC(=O)C1=CN(C(C)C)C(=O)[C@@H]2C(CN3CCN(Cc4ccc(F)cc4)CC3)=CC[C@H]12.Cl.Cl,98.4%
4,COC(=O)C1=CN(C)C(=O)[C@@H]2C(CN3CCN(Cc4ccc(F)cc4)CC3)=CC[C@H]12.Cl.Cl,96.2%

# System: not listed separately
# Assay: Cytotoxicity against Sprague-Dawley rat cortical neuron assessed as cell survival at 100 uM incubated for 48 hrs by CellTiter Glo-based luminescence assay relative to control
# Set-up: species or system Cortical neurone
# Conditions: rat cortical neurons, read-out: Activity
row,SMILES,"viability at 48 h, 100 µM"
1,COC(=O)C1=CN(C(C)C)C(=O)[C@@H]2C(CN3CCN(Cc4ccccc4)CC3)=CC[C@H]12.Cl.Cl,82.5%
2,COC(=O)C1=CN(C(C)C)C(=O)[C@@H]2C(CN3CCN(Cc4ccc([N+](=O)[O-])cc4)CC3)=CC[C@H]12.Cl.Cl,78.5%
3,COC(=O)C1=CN(C(C)C)C(=O)[C@@H]2C(CN3CCN(Cc4ccc(F)cc4)CC3)=CC[C@H]12.Cl.Cl,80.9%
4,COC(=O)C1=CN(C)C(=O)[C@@H]2C(CN3CCN(Cc4ccc(F)cc4)CC3)=CC[C@H]12.Cl.Cl,78.5%

# System: Hippocampal neurone
# Assay: Neuroprotective activity against amyloid beta (1 to 42)-induced neurotoxicity in Sprague-Dawley rat hippocampal neuron assessed as increase in cell survival rate incubated for 48 hrs in presence of amyloid beta (1 to 42) by CellTiter Glo-based luminescence assay
# Type: functional
# Conditions: not given
row,SMILES,Activity
1,COC(=O)C1=CN(C(C)C)C(=O)[C@@H]2C(CN3CCN(Cc4ccccc4)CC3)=CC[C@H]12.Cl.Cl,Dose-dependent effect
2,COC(=O)C1=CN(C(C)C)C(=O)[C@@H]2C(CN3CCN(Cc4ccc([N+](=O)[O-])cc4)CC3)=CC[C@H]12.Cl.Cl,Dose-dependent effect
3,COC(=O)C1=CN(C(C)C)C(=O)[C@@H]2C(CN3CCN(Cc4ccc(F)cc4)CC3)=CC[C@H]12.Cl.Cl,Dose-dependent effect
4,COC(=O)C1=CN(C)C(=O)[C@@H]2C(CN3CCN(Cc4ccc(F)cc4)CC3)=CC[C@H]12.Cl.Cl,Dose-dependent effect

# System: Hippocampal neurone
# Assay: Neuroprotective activity against H2O2-induced neurotoxicity in Sprague-Dawley rat hippocampal neuron assessed as increase in cell survival rate incubated for 24 hrs in presence of 150 uM H2O2 by MTT assay
# Type: functional, cell-based
# Conditions: not given
row,SMILES,Activity
1,COC(=O)C1=CN(C(C)C)C(=O)[C@@H]2C(CN3CCN(Cc4ccccc4)CC3)=CC[C@H]12.Cl.Cl,Dose-dependent effect
2,COC(=O)C1=CN(C(C)C)C(=O)[C@@H]2C(CN3CCN(Cc4ccc([N+](=O)[O-])cc4)CC3)=CC[C@H]12.Cl.Cl,Dose-dependent effect
3,COC(=O)C1=CN(C(C)C)C(=O)[C@@H]2C(CN3CCN(Cc4ccc(F)cc4)CC3)=CC[C@H]12.Cl.Cl,Dose-dependent effect
4,COC(=O)C1=CN(C)C(=O)[C@@H]2C(CN3CCN(Cc4ccc(F)cc4)CC3)=CC[C@H]12.Cl.Cl,Dose-dependent effect
